# Assay results published in patent US20220218675A1, “TREATMENT OF OCULAR DISEASE” (PREMARK PHARMA GMBH, priority 2019, published 2022).
# Legend:
# [1] = slightly soluble in water; cited from earlier work
# [2] = Solubility of pimecrolimus in different solvents (HPLC after 24-hour equilibration at 25 °C); assay type: physicochemical
# Protocol: FIG. 2: Solubility of pimecrolimus in different solvents. […] Form B refers to the anhydrous, crystalline polymorph B of pimecrolimus that has been used in the manufacture of the composition according to the invention. The legend in the lower table defines the terms used for the categorization of solubility.
# The solubility of pimecrolimus in different solvents was determined by HPLC after 24-hour equilibration (vibration) at 25.0+/−0.5° C. After the vibration, the precipitate was separated from the solution, dried and investigated by DSC and by X-ray diffraction pattern.
# [3] = test system: animal models of skin inflammation; details: in vivo; cited from earlier work
# skin = details: cited from earlier work
Structure (SMILES),Solubility in water [1],Solubility in excipients that can be used in semi-solid formulations for dermal and ophthalmic use [2],"Solubility in aqueous solutions and water ([2]; 24-hour equilibration at 25.0+/-0.5 °C, HPLC, FIG. 2)",Efficacy in animal models of skin inflammation [3],Potential for systemic immunosuppression (skin; compared with cyclosporin A and tacrolimus),"Anti-inflammatory activity in the skin, topical (skin; compared with cyclosporin A)",Skin atrophy (skin; in contrast to steroids)
"OCCc1ccccc1 [Phenyl ethyl alcohol, 2-phenyl-ethan-1-ol]",2 ml/100 ml H2O,,,,,,
"CC[C@@H]1/C=C(\C)C[C@H](C)C[C@H](OC)[C@H]2O[C@@](O)(C(=O)C(=O)N3CCCC[C@H]3C(=O)O[C@H](/C(C)=C/[C@@H]3CC[C@H](Cl)[C@H](OC)C3)[C@H](C)[C@@H](O)CC1=O)[C@H](C)C[C@@H]2OC [pimecrolimus, (1R,9S,12S,13R,14S,17R,18E,21S,23S,24R,25S,27R)-12-[(1E)-2-{(1R,3R,4S)-4-chloro-3-methoxycyclohexyl}-1-methylvinyl]-17-ethyl-1,14-dihydroxy-23,25-dimethoxy-13,19,21,27-tetramethyl-11,28-dioxa-4-aza-tricyclo[22.3.1.04,9]octacos-18-ene-2,3,10,16-tetraone]",,very poor,insoluble,highly effective,lower potential for systemic immunosuppression than cyclosporin A and tacrolimus,greater anti-inflammatory activity in the skin than cyclosporin A,does not induce skin atrophy
